Experimental data as given in patent US9440971B2, “Solid state forms of vemurafenib hydrochloride” (ratiopharm GmbH, priority 2013, dated 2016).
Counter-ions that a name gives are not always drawn. Like-named read-outs stand apart in the source and are kept apart here.

Legend:
[1] = conditions not given; cited from earlier work
[2] = as observed in WO 2010/114928 and WO 2010/129570; cited from earlier work
[3] = Storage stability of the crystalline form at controlled temperature and relative humidity; assay type: physicochemical; conditions: up to at least 24 weeks, hydrochloride
Description: Particularly, crystalline Vemurafenib HCl form II has high chemical purity and excellent stability properties. […] Therefore, the crystalline Vemurafenib HCl form II may be used to prepare an oral formulation which is stable and has a relatively small tablet or capsule size as the molar ratio of Vemurafenib to HCl is about 1:1, which is highly advantageous for preparing pharmaceutical compositions with high drug load.

[4] = Solubility; assay type: physicochemical
[5] = 25° C. and 60% relative humidity (RH)

Row | SMILES | stability of amorphous form [1] | solubility [2] | stability upon storage [3, 5] | stability upon storage ([3]; 30° C./65% RH) | solubility [4]
1 | CCCS(=O)(=O)Nc1ccc(F)c(C(=O)c2c[nH]c3ncc(-c4ccc(Cl)cc4)cc23)c1F [Amorphous Vemurafenib] | not stable | – | – | – | –
2 | CCCS(=O)(=O)Nc1ccc(F)c(C(=O)c2c[nH]c3ncc(-c4ccc(Cl)cc4)cc23)c1F [Vemurafenib, propane-1-sulfonic acid {3-[5-(4-chlorophenyl)-1H-pyrrolo[2,3-b]pyridine-3-carbonyl]-2,4-difluoro-phenyl}-amide] | – | extremely low solubility | – | – | –
3 | CCCS(=O)(=O)Nc1ccc(F)c(C(=O)c2c[nH]c3ncc(-c4ccc(Cl)cc4)cc23)c1F [crystalline Vemurafenib HCl form I, Vemurafenib hydrochloride] | – | – | converts to Vemurafenib free base | converts to Vemurafenib free base | –
4 | CCCS(=O)(=O)Nc1ccc(F)c(C(=O)c2c[nH]c3ncc(-c4ccc(Cl)cc4)cc23)c1F [crystalline Vemurafenib HCl form II, Vemurafenib hydrochloride] | – | – | stable | stable | good solubility
